As usually defined, the IC50 is the midpoint of a concentration-inhibition curve.

The record followed here is EP4741386A1 (Jiangsu Yahong Meditech Co., Ltd., priority 2023, dated 2025).

The target of test [1] is T1, Recombinant human His6-USP1/His6-UAF1 complex protein (Homo sapiens, UniProt O94782).
T1 construct: His6; purchased R&D E-568-050
Description: In vitro inhibitory activity against USP1 (Ubiquitin Rhodamine 110 fluorescence detection, 384-well plate). Particulars: Ub-Rho substrate, 1 hour pre-incubation, read after 30 minutes. Type of test: biochemical. The gist of the method: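 Fluorescence assay measuring inhibition of recombinant human His6-USP1/His6-UAF1 complex with Ubiquitin-Rhodamine 110 substrate. Compounds held as 50 mM stocks in 100% DMSO and dispensed by acoustic transfer into modified Tris assay buffer.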

Test [2] deals with MDA-MB-436. Description: CTG experiment for cell viability (CellTiter-Glo, 96-well plate, 7 days). Type of test: cell-based. Particulars: Homo sapiens, MDA-MB-436, 168 h, MDA-MB-436 cells, 7 days culture with compound. The method, then: Test Example 2: CTG experiment for cell viability
• 1. Object: to screen USP1 inhibitors by a CTG assay, using a 96-well plate. • 2. Materials: • The cells used were MDA-MB-436 (manufacturer: Nanjing Cobioer Biotechnology Co., Ltd.) and cultured in DMEM medium, • CTG (CellTiter-Glo® Luminescent Cell Viability Assay kit) (Promega, Cat. No.: G7572), • 96-well plate (Corning, Cat. No.: 3610). • 3. Compounds: all compounds were dissolved in 100% DMSO to obtain 50 mM stock solutions. • 4. Experimental method: • ① Plating: The cells to be tested were spread into a 96-well plate at a certain density, with 200 µL per well, and 200 µL of cell medium was added to the blank wells. […] The cell plate with the compounds was placed in an incubator at 37°C, and further cultured for 7 days prior to detection. • ④ Assay: The substrate and the buffer of CTG kit were mixed evenly. The cell plate with the compounds in Step ③ was taken out from the incubator, and left at room temperature to equilibrate for 30 minutes. The medium containing the compounds was removed from the cell plate, 100 µL of PBS and 50 µL of CTG reagent were added to each well, shaken and mixed for 3 minutes, and then incubated for 10 minutes at room temperature. The plate was read by a BIotek microplate-reader, with a parameter set to 567 CPM. • 5. Curve fitting
It was the same as that for the enzyme.
For orientation: Cellular ATP, detected with luciferase, serves as a proxy for viable cell number.

T1 sequence (O94782 whole entry): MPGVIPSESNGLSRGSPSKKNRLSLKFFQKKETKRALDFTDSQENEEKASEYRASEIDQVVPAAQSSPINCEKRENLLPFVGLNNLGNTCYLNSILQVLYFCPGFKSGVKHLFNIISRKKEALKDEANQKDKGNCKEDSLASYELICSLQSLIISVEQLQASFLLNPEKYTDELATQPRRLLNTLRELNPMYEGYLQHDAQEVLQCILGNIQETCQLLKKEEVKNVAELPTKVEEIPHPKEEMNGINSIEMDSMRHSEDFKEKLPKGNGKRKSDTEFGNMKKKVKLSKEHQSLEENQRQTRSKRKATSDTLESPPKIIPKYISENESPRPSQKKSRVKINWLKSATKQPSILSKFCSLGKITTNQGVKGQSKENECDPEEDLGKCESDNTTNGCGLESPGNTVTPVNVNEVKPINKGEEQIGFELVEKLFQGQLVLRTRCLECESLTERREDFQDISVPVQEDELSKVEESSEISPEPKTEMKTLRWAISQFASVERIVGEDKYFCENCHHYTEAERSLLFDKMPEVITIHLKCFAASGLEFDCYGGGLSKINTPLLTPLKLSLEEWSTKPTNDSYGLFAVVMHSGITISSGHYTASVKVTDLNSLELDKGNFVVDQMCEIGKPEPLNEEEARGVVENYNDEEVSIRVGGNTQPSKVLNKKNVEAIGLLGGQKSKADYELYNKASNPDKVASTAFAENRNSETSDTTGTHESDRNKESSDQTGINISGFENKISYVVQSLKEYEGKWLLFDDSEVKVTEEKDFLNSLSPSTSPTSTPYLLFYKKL
T1 sequence (Q8TAF3 whole entry partner): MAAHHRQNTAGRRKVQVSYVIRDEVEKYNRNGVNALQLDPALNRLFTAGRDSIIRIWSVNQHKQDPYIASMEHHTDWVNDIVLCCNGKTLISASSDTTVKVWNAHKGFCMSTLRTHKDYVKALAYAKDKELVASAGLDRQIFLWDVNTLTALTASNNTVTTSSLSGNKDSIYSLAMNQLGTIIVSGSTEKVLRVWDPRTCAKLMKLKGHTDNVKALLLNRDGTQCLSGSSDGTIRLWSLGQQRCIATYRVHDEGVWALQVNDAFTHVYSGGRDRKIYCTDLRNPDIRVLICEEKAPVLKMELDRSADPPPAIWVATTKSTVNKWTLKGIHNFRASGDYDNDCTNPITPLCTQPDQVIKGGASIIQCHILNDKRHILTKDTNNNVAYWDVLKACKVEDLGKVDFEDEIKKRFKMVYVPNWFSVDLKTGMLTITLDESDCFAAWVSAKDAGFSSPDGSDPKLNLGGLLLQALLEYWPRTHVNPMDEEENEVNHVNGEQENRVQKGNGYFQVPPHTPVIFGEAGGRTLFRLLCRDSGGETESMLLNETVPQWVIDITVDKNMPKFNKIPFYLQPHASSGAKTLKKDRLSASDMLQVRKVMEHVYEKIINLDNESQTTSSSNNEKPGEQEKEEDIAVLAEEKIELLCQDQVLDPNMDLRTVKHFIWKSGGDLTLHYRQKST

As to `COc1cc(CNc2nc(-c3ccccc3C(C)C)nc3ccoc23)ccc1-n1nc(C(F)(F)F)cc1C` [Example 84, 2-(2-Isopropylphenyl)-N-(3-methoxy-4-(5-methyl-3-(trifluoromethyl)-1H-pyrazol-1-yl)benzyl)furo[3,2-d]pyrimidin-4-amine], the IC50 was 9 nM in test [1] and 704 nM in test [2].
Regarding `C#Cc1cnc(-c2ccccc2C(C)C)nc1NCc1ccc(-c2nc(C(F)(F)F)cn2C)cc1` [Example 85, 5-Ethynyl-2-(2-isopropylphenyl)-N-(4-(1-methyl-4-(trifluoromethyl)-1H-imidazol-2-yl)benzyl)pyrimidin-4-amine], the values for the concentration for half-maximal inhibition (IC50) in test [1] and in test [2] were 0.47 nM and 22.5 nM, respectively.
In the case of `CC(C)c1ccccc1-c1ncc(OC(F)F)c(NCc2ccc(-c3nc(C(F)(F)F)cn3C)cc2)n1` [Example 86, 5-(Difluoromethoxy)-2-(2-isopropylphenyl)-N-(4-(1-methyl-4-(trifluoromethyl)-1H-imidazol-2-yl)benzyl)pyrimidin-4-amine], the 50% inhibitory concentration (IC50) in test [1] was determined as 1.1 nM; in test [2], 29.4 nM.
In the same order, the values of `CC(C)c1ccccc1-c1ncc(N2CCN(C)CC2)c(NCc2ccc(-c3nc(C(F)(F)F)cn3C)cc2)n1` [Example 88, 2-(2-Isopropylphenyl)-N-(4-(1-methyl-4-(trifluoromethyl)-1H-imidazol-2-yl)benzyl)-5-(4-methylpiperazin-1-yl)pyrimidin-4-amine] are 10 nM and 157 nM.
Turning to `CC(C)c1ccccc1-c1ncc(O)c(NCc2ccc(-c3nc(C(F)(F)F)cn3C)cc2)n1` [Example 89, 2-(2-Isopropylphenyl)-4-((4-(1-methyl-4-(trifluoromethyl)-1H-imidazol-2-yl)benzyl)amino)pyrimidin-5-ol], the IC50 was found to be 14.4 nM in test [1] and 243 nM in test [2].
With `COC(=O)Cc1cnc(-c2ccccc2C(C)C)nc1NCc1ccc(-c2nc(C(F)(F)F)cn2C)cc1` [Example 91, Methyl 2-(2-(2-isopropylphenyl)-4-((4-(1-methyl-4-(trifluoromethyl)-1H-imidazol-2-yl)benzyl)amino)pyrimidin-5-yl)acetate], the figures for the IC50 in test [1] and in test [2] were 1.3 nM and 479 nM, respectively.
Regarding `COc1cnc(-c2c(OC)ncnc2C2CC2)nc1N(C)CC1CCN(c2nc(C(F)(F)F)cn2C)CC1` [Example 92, 4'-Cyclopropyl-5,6'-dimethoxy-N-methyl-N-((1-(1-methyl-4-(trifluoromethyl)-1 H-imidazol-2-yl)piperidin-4-yl)methyl)-[2,5'-bipyrimidin]-4-amine], the IC50 in test [1] came out at 3.3 nM; in test [2] it was 27.3 nM.
The matching figures for `COc1cnc(-c2c(OC)ncnc2C2CC2)nc1N(C)Cc1ccc(-c2nc(C(F)(F)F)cn2C(C)C)cc1` [Example 93, 4'-Cyclopropyl-N-(4-(1-isopropyl-4-(trifluoromethyl)-1H-imidazol-2-yl)benzyl)-5,6'-dimethoxy-N-methyl-[2,5'-bipyrimidin]-4-amine]: 1.5 nM and 3.5 nM.
In the case of `COc1cnc(-c2c(OC)ncnc2C2CC2)nc1NCc1ccc(-c2ccccn2)cc1` [Example 94, 4'-Cyclopropyl-5,6'-dimethoxy-N-(4-(pyridin-2-yl)benzyl)-[2,5'-bipyrimidin]-4-amine], the IC50 is 6.5 nM in test [1] and 275 nM in test [2].
Turning to `COc1cnc(-c2c(OC)ncnc2C2CC2)nc1NCC1CCN(c2nc(C(F)(F)F)cn2C)CC1` [Example 95, 4'-Cyclopropyl-5,6'-dimethoxy-N-((1-(1-methyl-4-(trifluoromethyl)-1H-imidazol-2-yl)piperidin-4-yl)methyl)-[2,5'-bipyrimidin]-4-amine], the IC50 in test [1] stood at 8.4 nM; in test [2], 75.1 nM.
Take `COc1cnc(-c2c(OC)ncnc2C2CC2)nc1NCc1ccc(-c2nc(C(F)(F)F)cn2C)cc1` [Example 96, 4'-Cyclopropyl-5,6'-dimethoxy-N-(4-(1-methyl-4-(trifluoromethyl)-1H-imidazol-2-yl)benzyl)-[2,5'-bipyrimidin]-4-amine]: the results for the IC50 in test [1] and in test [2] were 4.8 nM and 12 nM, respectively.
Consider `COc1cnc(-c2c(OC)ncnc2C2CC2)nc1NCc1ccc(OCc2ccccn2)cc1` [Example 98, 4'-Cyclopropyl-5,6'-dimethoxy-N-(4-(pyridin-2-ylmethoxy)benzyl)-[2,5'-bipyrimidin]-4-amine], for which the half-maximal inhibitory concentration (IC50) came out at 144 nM in test [1] and 694 nM in test [2].
In the case of `CCOCCOc1ccc(CNc2nc(-c3c(OC)ncnc3C3CC3)ncc2OC)cc1` [Example 99, 4'-Cyclopropyl-N-(4-(2-ethoxyethoxy)benzyl)-5,6'-dimethoxy-[2,5'-bipyrimidin]-4-amine], the IC50 amounted to 15.1 nM in test [1] and 445 nM in test [2].
Regarding `COc1cc(-c2nc(C(F)(F)F)cn2C)ccc1CNc1nc(-c2c(OC)ncnc2C2CC2)ncc1OC` [Example 100, 4'-Cyclopropyl-5,6'-dimethoxy-N-(2-methoxy-4-(1-methyl-4-(trifluoromethyl)-1H-imidazol-2-yl)benzyl)-[2,5'-bipyrimidin]-4-amine], the results for the half-inhibitory concentration (IC50) in test [1] and in test [2] were 4.1 nM and 27.8 nM, respectively.
The matching figures for `COc1cc(CNc2nc(-c3c(OC)ncnc3C3CC3)ncc2OC)ccc1-c1nc(C(F)(F)F)cn1C` [Example 101, 4'-Cyclopropyl-5,6'-dimethoxy-N-(3-methoxy-4-(1-methyl-4-(trifluoromethyl)-1H-imidazol-2-yl)benzyl)-[2,5'-bipyrimidin]-4-amine]: 15 nM and 99.1 nM.
On to `COc1cc(-n2nc(C(F)(F)F)cc2C)ccc1CNc1nc(-c2c(OC)ncnc2C2CC2)ncc1OC` [Example 102, 4'-Cyclopropyl-5,6'-dimethoxy-N-(2-methoxy-4-(5-methyl-3-(trifluoromethyl)-1H-pyrazol-1-yl)benzyl)-[2,5'-bipyrimidin]-4-amine], for which the IC50 in test [1] was found to be 4.4 nM; in test [2] it was 15.8 nM.
`COc1cc(CNc2nc(-c3c(OC)ncnc3C3CC3)ncc2OC)ccc1-n1nc(C(F)(F)F)cc1C` [Example 103, 4'-Cyclopropyl-5,6'-dimethoxy-N-(3-methoxy-4-(5-methyl-3-(trifluoromethyl)-1H-pyrazol-1-yl)benzyl)-[2,5'-bipyrimidin]-4-amine]: the IC50 in test [1] was 10 nM; in test [2], 141 nM.
As for `COc1cnc(-c2c(OC)ncnc2C2CC2)nc1NCC12CCC(c3nc(C(F)(F)F)cn3C)(CC1)CC2` [Example 104, 4'-Cyclopropyl-5,6'-dimethoxy-N-((4-(1-methyl-4-(trifluoromethyl)-1H-imidazol-2-yl)bicyclo[2.2.2]octan-1-yl)methyl)-[2,5'-bipyrimidin]-4-amine], the IC50 in test [1] turned out to be 8.8 nM; in test [2] it was 13.7 nM.
The matching figures for `COc1cnc(-c2c(OC)ncnc2C2CC2)nc1NCc1ccc(-c2nc(C)cn2C(F)F)cc1` [Example 105, 4'-Cyclopropyl-N-(4-(1-(difluoromethyl)-4-methyl-1H-imidazol-2-yl)benzyl)-5,6'-dimethoxy-[2,5'-bipyrimidin]-4-amine]: 60 nM and 124 nM.
On to `COc1cnc(-c2c(OC)ncnc2C2CC2)nc1NCc1ccc(-c2nc(C(F)(F)F)cn2C(C)C)cc1` [Example 106, 4'-Cyclopropyl-N-(4-(1-isopropyl-4-(trifluoromethyl)-1H-imidazol-2-yl)benzyl)-5,6'-dimethoxy-[2,5'-bipyrimidin]-4-amine], for which the IC50 was determined as 2.9 nM in test [1] and 4.7 nM in test [2].
